These results are taken from patent US8557800B2, “Sphingosine kinase inhibitors” (Apogee Biotechnology Corporation, priority 2005, dated 2013).

Read-outs that look alike come from different tables or passages of the source.

Assay [1] relates to MCF-10A non-transformed human breast epithelial cells. Put plainly: Cytotoxicity, SRB binding assay. Format: cell-based. The settings on record: 48 h. In outline:
(§1)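 Cells exposed to varying compound doses for 48 h, then survival measured by sulforhodamine B staining. IC50 is the concentration giving 50% proliferation inhibition, in μM, as mean±sd of replicate trials.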
(In general: Sulforhodamine B stains cellular protein and so reports cell mass.)

The subject of the next assay is recombinant human SK. Put plainly: Inhibition of recombinant human SK, LC/MS/MS assay. Format: biochemical. Particulars: 6 μg/ml compound. In outline: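 Enzyme incubated with unlabeled sphingosine and ATP (1 mM, as in the radiometric format) for 30 min, then stopped and extracted with acetonitrile. S1P quantified by C8 reverse-phase HPLC–MS/MS against C17 sphingosine and C17 S1P internal standards using calibration curves.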

The subject of assay [2] is MCF-7 human breast adenocarcinoma cells. Put plainly: Cytotoxicity, SRB binding assay. It counts as cell-based. Put shortly:
as §1

The mark [3] stands for this setting: inhibition of cell proliferation, read-out: MCF-10A IC50.
Where [4] appears, read: MCF7, inhibition of cell proliferation, 48 h, read-out: MCF-7 IC50.

For orientation: IC50 means the midpoint of a concentration-inhibition curve. Turning to `N#CCc1ccc(NC(=O)C23CC4CC(CC(C4)C2)C3)cc1` [Compound 10, Adamantane-1-carboxylic acid (4-cyanomethyl-phenyl)-amide], the IC50 in assay [1] (setting [3]) was found to be 170 µM. Besides, the “Recombinant SK (% inhibition)” value in the assay on recombinant human SK is reported as 3%.

As to `O=C(NCCc1ccc(O)cc1)C12CC3CC(C1)CC(c1ccc(Cl)cc1)(C3)C2` [Compound 40, 3-(4-Chloro-phenyl)-adamantane-1-carboxylic acid [2-(4-hydroxy-phenyl)-ethyl]-amide], the IC50 was 37 µM in assay [1] (setting [3]) and 6 µM in assay [2] (setting [4]). Further, in the assay with recombinant human SK, the “Recombinant SK (% inhibition)” value turned out to be 100%.

`CC(C)NC(C)C12CC3CC(CC(c4ccc(Cl)cc4)(C3)C1)C2` (stereo not shown) [Compound 92, {1-[3-(4-Chloro-phenyl)-adamantan-1-yl]-ethyl}-isopropyl-amine]: the IC50 amounted to 6 µM in assay [1] (setting [3]) and 2 µM in assay [2] (setting [4]).

Regarding `O=C(Nc1ccc(O)cc1O)C12CC3CC(C1)CC(c1ccc(Cl)cc1)(C3)C2` [Compound 8, 3-(4-Chloro-phenyl)-adamantane-1-carboxylic acid (2,4-dihydroxy-phenyl)-amide], the figures for the IC50 in assay [1] (setting [3]) and in assay [2] (setting [4]) were 94 µM and 47 µM, respectively. In addition, in the assay on recombinant human SK, the “Recombinant SK (% inhibition)” value is 49%.

As for `O=C(NCCN1CCOCC1)C12CC3CC(C1)CC(c1ccc(Cl)cc1)(C3)C2` [Compound 58, 3-(4-Chloro-phenyl)-adamantane-1-carboxylic acid (2-morpholin-4-yl-ethyl)-amide], the IC50 worked out at 36 µM in assay [1] (setting [3]) and 20 µM in assay [2] (setting [4]). Moreover, the “Recombinant SK (% inhibition)” value with recombinant human SK is given as 67%.

As for `CN1CCN(NC(=O)C23CC4CC(C2)CC(c2ccc(Cl)cc2)(C4)C3)CC1` [Compound 52, 3-(4-Chloro-phenyl)-adamantane-1-carboxylic acid (4-methyl-piperazin-1-yl)-amide], the IC50 in assay [1] (setting [3]) came to 15 µM; in assay [2] (setting [4]) it was 10 µM. In the assay with recombinant human SK, the “Recombinant SK (% inhibition)” value was determined as 54%.

In the case of `CCn1c2ccccc2c2cc(NC(C)C34CC5CC(CC(c6ccc(Cl)cc6)(C5)C3)C4)ccc21` (stereo not shown) [Compound 114, {1-[3-(4-Chloro-phenyl)-adamantan-1-yl]-ethyl}-(9-ethyl-9H-carbazol-3-yl)-amine], the IC50 in assay [1] (setting [3]) is 9 µM; in assay [2] (setting [4]) it was 55 µM. Also, the “Recombinant SK (% inhibition)” value in the assay with recombinant human SK was found to be 33%.

As to `O=C(NCCc1ccccc1)C12CC3CC(C1)CC(c1ccc(Cl)cc1)(C3)C2` [Compound 37, 3-(4-Chloro-phenyl)-adamantane-1-carboxylic acid phenethyl-amide], the results for the IC50 in assay [1] (setting [3]) and in assay [2] (setting [4]) were 127 µM and 5 µM, respectively. For the same molecule, the “Recombinant SK (% inhibition)” value in the assay with recombinant human SK was 24%.

Consider `Cc1cc2cc(NC(=O)C34CC5CC(C3)CC(c3ccc(Cl)cc3)(C5)C4)ccc2[nH]1` [Compound 66, 3-(4-Chloro-phenyl)-adamantane-1-carboxylic acid (2-methyl-1H-indol-5-yl)-amide], for which the half-maximal inhibitory concentration (IC50) turned out to be 53 µM in assay [1] (setting [3]) and 19 µM in assay [2] (setting [4]). Moreover, the “Recombinant SK (% inhibition)” value in the assay on recombinant human SK was found to be 92%.

As for `O=C(O)C12CC3CC(C1)CC(c1ccccc1)(C3)C2` [Compound 121, 3-Phenyl-adamantane-1-carboxylic acid], the 50% inhibitory concentration (IC50) in assay [1] (setting [3]) turned out to be 176 µM; in assay [2] (setting [4]), 13 µM.

`O=C(Nc1nc(-c2ccc(Cl)cc2)cs1)C12CC3CC(C1)CC(c1ccc(Cl)cc1)(C3)C2` [Compound 70, 3-(4-Chloro-phenyl)-adamantane-1-carboxylic acid [4-(4-chloro-phenyl)-thiazol-2-yl]-amide]: the IC50 was 103 µM in assay [1] (setting [3]) and 7 µM in assay [2] (setting [4]). The “Recombinant SK (% inhibition)” value with recombinant human SK came out at 33%.

Regarding `CCn1c2ccccc2c2cc(NC(=O)C34CC5CC(C3)CC(c3ccc(Cl)cc3)(C5)C4)ccc21` [Compound 68, 3-(4-Chloro-phenyl)-adamantane-1-carboxylic acid (9-ethyl-9H-carbazol-3-yl)-amide], the values for the concentration for half-maximal inhibition (IC50) in assay [1] (setting [3]) and in assay [2] (setting [4]) were 104 µM and 54 µM, respectively. In the assay on recombinant human SK, the “Recombinant SK (% inhibition)” value is 17%.

`O=C(Nc1ccc(O)cc1)C12CC3CC(C1)CC(c1ccc(Cl)cc1)(C3)C2` [Compound 6, 3-(4-Chloro-phenyl)-adamantane-1-carboxylic acid (4-hydroxy-phenyl)-amide]: the IC50 was found to be 15 µM in assay [1] (setting [3]) and 5 µM in assay [2] (setting [4]). The “Recombinant SK (% inhibition)” value with recombinant human SK is listed as 72%.

For the molecule `COC(=O)C(C(=O)OC)C(=O)C12CC3CC(C1)CC(c1ccc(Cl)cc1)(C3)C2` [Compound 129, 2-[3-(4-Chloro-phenyl)-adamantane-1-carbonyl]-malonic acid dimethyl ester], the IC50 in assay [1] (setting [3]) came to 105 µM; in assay [2] (setting [4]), 16 µM.

In the case of `O=C(Nc1nc2ccccc2s1)C12CC3CC(C1)CC(c1ccc(Cl)cc1)(C3)C2` [Compound 71, 3-(4-Chloro-phenyl)-adamantane-1-carboxylic acid benzothiazol-2-ylamide], the IC50 in assay [1] (setting [3]) worked out at 118 µM; in assay [2] (setting [4]), 21 µM. Moreover, the “Recombinant SK (% inhibition)” value in the assay with recombinant human SK is 27%.

For `CC(=O)C12CC3CC(CC(C3)C1)C2` [Compound 124, 1-Adamantan-1-yl-ethanone], the 50% inhibitory concentration (IC50) is 105 µM in assay [1] (read-out: MCF-10A IC50 (μM)) and 11 µM in assay [2] (MCF7, 48 h, read-out: MCF-7 IC50 (μM)).

On to `O=C(Nc1ccc(O)cc1)C12CC3CC(CC(C3)C1)C2` [Compound 5, Adamantane-1-carboxylic acid (4-hydroxy-phenyl)-amide], for which, in assay [1] (setting [3]), the IC50 was determined as 30 µM. For the same molecule, in the assay with recombinant human SK, the “Recombinant SK (% inhibition)” value amounted to 100%.

Take `O=C(Nc1cccc(CO)c1)C12CC3CC(C1)CC(c1ccc(Cl)cc1)(C3)C2` [Compound 9, 3-(4-Chloro-phenyl)-adamantane-1-carboxylic acid (3-hydroxymethyl-phenyl)-amide]: the figures for the 50% inhibitory concentration (IC50) in assay [1] (setting [3]) and in assay [2] (setting [4]) were 17 µM and 9 µM, respectively. In the assay on recombinant human SK, the “Recombinant SK (% inhibition)” value is given as 84%.

Consider `O=C(NCCc1ccc(F)cc1)C12CC3CC(C1)CC(c1ccc(Cl)cc1)(C3)C2` [Compound 38, 3-(4-Chloro-phenyl)-adamantane-1-carboxylic acid [2-(4-fluoro-phenyl)-ethyl]-amide], for which the half-inhibitory concentration (IC50) was found to be 40 µM in assay [1] (setting [3]) and 9 µM in assay [2] (setting [4]). In the assay with recombinant human SK, the “Recombinant SK (% inhibition)” value was 40%.

For the molecule `CC(=O)C12CC3CC(C1)CC(c1ccc(F)cc1)(C3)C2` [Compound 126, 1-[3-(4-Fluoro-phenyl)-adamantan-1-yl]-ethanone], the IC50 in assay [1] (setting [3]) turned out to be 6 µM; in assay [2] (setting [4]), 2 µM.

Take `CC(=O)C12CC3CC(C1)CC(c1ccc(Cl)cc1)(C3)C2` [Compound 127, 1-[3-(4-Chloro-phenyl)-adamantan-1-yl]-ethanone]: the IC50 stood at 16 µM in assay [1] (setting [3]) and 6 µM in assay [2] (setting [4]).

Take `CC(NC1CCN(C)CC1)C12CC3CC(CC(c4ccccc4)(C3)C1)C2` (stereo not shown) [Compound 105, (1-Methyl-piperidin-4-yl)-[1-(3-phenyl-adamantan-1-yl)-ethyl]-amine]: the IC50 was 14 µM in assay [1] (setting [3]) and 5 µM in assay [2] (setting [4]).

For `CC(N)C12CC3CC(CC(c4ccc(Cl)cc4)(C3)C1)C2` (stereo not shown) [Compound 91, 1-[3-(4-Chloro-phenyl)-adamantan-1-yl]-ethylamine], the IC50 in assay [1] (setting [3]) was 4 µM; in assay [2] (setting [4]), 5 µM.

In the case of `CC(Nc1ccccc1)C12CC3CC(CC(c4ccc(Cl)cc4)(C3)C1)C2` (stereo not shown) [Compound 95, {1-[3-(4-Chloro-phenyl)-adamantan-1-yl]-ethyl}-phenyl-amine], the figures for the 50% inhibitory concentration (IC50) in assay [1] (setting [3]) and in assay [2] (setting [4]) were 68 µM and 22 µM, respectively.

Consider `O=C(O)C12CC3CC(C1)CC(c1ccc(Cl)cc1)(C3)C2` [Compound 123, 3-(4-Chloro-phenyl)-adamantane-1-carboxylic acid], for which the IC50 in assay [1] (setting [3]) worked out at 95 µM; in assay [2] (setting [4]) it was 48 µM.

In the case of `CC(=O)C12CC3CC(C1)CC(c1ccccc1)(C3)C2` [Compound 125, 1-(3-Phenyl-adamantan-1-yl)-ethanone], the values for the IC50 in assay [1] (setting [3]) and in assay [2] (setting [4]) were 59 µM and 8 µM, respectively.

Regarding `CC(NC1CCN(C)CC1)C12CC3CC(CC(c4ccc(F)cc4)(C3)C1)C2` (stereo not shown) [Compound 106, {1-[3-(4-Fluoro-phenyl)-adamantan-1-yl]-ethyl}-(1-methyl-piperidin-4-yl)-amine], the figures for the IC50 in assay [1] (setting [3]) and in assay [2] (setting [4]) were 6 µM and 2 µM, respectively.

With `O=C(O)C12CC3CC(C1)CC(c1ccc(F)cc1)(C3)C2` [Compound 122, 3-(4-Fluoro-phenyl)-adamantane-1-carboxylic acid], the 50% inhibitory concentration (IC50) in assay [1] (setting [3]) was determined as 182 µM; in assay [2] (setting [4]) it was 155 µM.

Consider `O=C(NCCc1ccc2c(c1)OCO2)C12CC3CC(C1)CC(c1ccc(Cl)cc1)(C3)C2` [Compound 45, 3-(4-Chloro-phenyl)-adamantane-1-carboxylic acid (2-benzo[1,3]dioxol-5-yl-ethyl)-amide], for which, in assay [2] (setting [4]), the concentration for half-maximal inhibition (IC50) is 17 µM. For the same molecule, the “Recombinant SK (% inhibition)” value in the assay on recombinant human SK is reported as 64%.

As for `CC(NCc1ccccc1)C12CC3CC(CC(C3)C1)C2` (stereo not shown) [Compound 96, (1-Adamantan-1-yl-ethyl)-benzyl-amine], the IC50 in assay [1] (setting [3]) and in assay [2] (setting [4]) was 9 µM each time.

As to `COC(=O)C(C(=O)OC)C(=O)C12CC3CC(CC(C3)C1)C2` [Compound 128, 2-(Adamantane-1-carbonyl)-malonic acid dimethyl ester], the values for the 50% inhibitory concentration (IC50) in assay [1] (setting [3]) and in assay [2] (setting [4]) were 63 µM and 34 µM, respectively.

`CCSCCNC(=O)C12CC3CC(C1)CC(c1ccc(Cl)cc1)(C3)C2` [Compound 3, 3-(4-Chloro-phenyl)-adamantane-1-carboxylic acid (2-ethylsulfanyl-ethyl)-amide]: the IC50 in assay [2] (setting [4]) stood at 18 µM. Moreover, in the assay on recombinant human SK, the “Recombinant SK (% inhibition)” value is given as 6%.

Take `O=C(NCc1ccc(O)c(O)c1)C12CC3CC(CC(C3)C1)C2` [Compound 35, Adamantane-1-carboxylic acid 3,4-dihydroxy-benzylamide]: the IC50 in assay [2] (setting [4]) is 19 µM. In addition, the “Recombinant SK (% inhibition)” value with recombinant human SK worked out at 87%.
